The test system of data set [1] is EV-D68 US/KY/14-18953 virus. As to the kind of experiment: CPE assay, EV-D68 US/KY/14-18953 in RD cells. In kind it is cell-based, Enterovirus D68 (EV-D68). The conditions noted are these: EV-D68 US/KY/14-18953, RD cells; for EC50: Enterovirus D, EVD68, RD, CPE assay, read-out: EC50.
Data set [2] is described as follows: Cytotoxicity, neutral red method, RD cells. The conditions noted are these: human, RD (rhabdomyosarcoma) cells.
A further data set has as its system RD cells. In words: Cytotoxicity, neutral red method, RD cells. As to conditions: RD cells, neutral red method.

What is called EC50 is the concentration needed to bring the measured effect to its halfway point. By CC50 is commonly meant the concentration giving 50% cytotoxicity. Low readings indicate harm at low concentration, high ones better tolerance by the cells.

Consider `CN(C)CCNC(=O)c1cc(-c2c(F)cc(F)cc2F)nc2ccccc12` [Compound 6bc, N-[2-(dimethylamino)ethyl]-2-(2,4,6-trifluorophenyl)quinoline-4-carboxamide], for which, in data set [1], the “SI = selectivity index (CC50/EC50)” value is listed as “SI50 = 10.9” and the EC50 was 3.6 µM. Also, in data set [2], the CC50 at 3 days amounted to 39.2 µM.
Turning to `CC1(CNC(=O)c2cc(-c3ccccc3)nc3ccccc23)CNC1` [Compound 6al, N-[(3-methylazetidin-3-yl)methyl]-2-phenylquinoline-4-carboxamide], in data set [1], the EC50 came out at 6.9 µM. The CC50 at 3 days in data set [2] turned out to be 49.5 µM.
With `[2H]c1c([2H])c([2H])c(-c2cc(C(=O)NCC3CNC3)c3ccccc3n2)c([2H])c1[2H]` [Compound 6au, N-[(azetidin-3-yl)methyl]-2 [(2,3,4,5,6-^2H5)phenyl]quinoline-4-carboxamide], in data set [1], the “SI = selectivity index (CC50/EC50)” value was “SI50 = 29.5” and the EC50 stood at 6.4 µM. This compound also registered a CC50 at 3 days in data set [2] of 188 µM.
For `NCCNC(=O)c1cc(-c2ccco2)nc2c(Cl)cccc12` [Compound 6bs, N-(2-aminoethyl)-8-chloro-2-(furan-2-yl)quinoline-4-carboxamide], in data set [1], the “SI = selectivity index (CC50/EC50)” value was “SI50 = 50.5” and the EC50 was found to be 1 µM. Besides, in data set [2], the CC50 at 3 days came out at 50.5 µM.
With `O=C(NCC1CNC1)c1cc(-c2ccc(F)cc2)nc2ccccc12` [Compound 6az, N-[(azetidin-3-yl)methyl]-2-(4-fluorophenyl)quinoline-4-carboxamide], in data set [1], the “SI = selectivity index (CC50/EC50)” value is listed as “SI50 = 42.2” and the concentration giving a half-maximal response (EC50) stood at 1.2 µM. Further, in data set [2], the midpoint of cytotoxicity, the CC50 at 3 days, lay at 50.6 µM.
Take `O=C(NCC1CNC1)c1cc(-c2ccco2)nc2ccccc12` [Compound 6br, N-[(azetidin-3-yl)methyl]-2-(furan-2-yl)quinoline-4-carboxamide]: in data set [1], the “SI = selectivity index (CC50/EC50)” value is listed as “SI50 = 14.8” and the EC50 was found to be 11.5 µM. The compound further came in with a CC50 at 3 days in data set [2] of 170 µM.
For `[2H]c1c([2H])c([2H])c(-c2cc(C(=O)NCCN)c3ccccc3n2)c([2H])c1[2H]` [Compound 6at, N-(2-aminoethyl)-2 [(2,3,4,5,6-^2H5)phenyl]quinoline-4-carboxamide], in that order: “SI50 = 45.6”, 2.2 µM and 100 µM.
For the compound `O=C(NCC1(O)CNC1)c1cc(-c2ccccc2)nc2ccccc12` [Compound 6ah, N-[(3-hydroxyazetidin-3-yl)methyl]-2-phenylquinoline-4-carboxamide], in data set [1], the EC50 was 5.1 µM. In addition, in data set [2], half-maximal cytotoxicity (CC50 at 3 days) was put at 82.2 µM.
For `CCN(CC)CCNC(=O)c1cc(OC)nc2ccccc12` [Compound 5a, N-[2-(diethylamino)ethyl]-2-methoxyquinoline-4-carboxamide], the “SI = selectivity index (CC50/EC50)” value in data set [1] is listed as more than 4.8. In addition, the half-maximal cytotoxic concentration (CC50) in the data set with RD cells is more than 250 µM.
In the case of `O=C(NC1CNC1)c1cc(-c2ccco2)nc2ccccc12` [Compound 6bq, N-(azetidin-3-yl) 2-(furan-2-yl)quinoline-4-carboxamide], in data set [1], the “SI = selectivity index (CC50/EC50)” value is reported as “SI50 = 14.5” and the 50% effective concentration (EC50) was 11.1 µM. The 50% cytotoxic concentration (CC50) at 3 days in data set [2] came to 161 µM.
For `NCCNC(=O)c1cc(-c2ccco2)nc2ccccc12` [Compound 6bp, N-(2-aminoethyl)-2-(furan-2-yl)quinoline-4-carboxamide], in that order: “SI50 = 33.4”, 4.4 µM and 147 µM.
For `CNCCCNC(=O)c1cc(-c2ccccc2)nc2ccccc12` [Compound 6ac, N-[3-(methylamino)propyl]-2-phenylquinoline-4-carboxamide], in that order: “SI50 = 10.5”, 8.9 µM and 93.6 µM.
For `CN(C)CCNC(=O)c1cc(-c2c(F)c(F)c(F)c(F)c2F)nc2ccccc12` [Compound 6be, N-[2-(dimethylamino)ethyl]-2-(2,3,4,5,6-pentafluorophenyl)quinoline-4-carboxamide], in that order: “SI50 = 13.7”, 10.8 µM and 148 µM.
In the case of `N=C(N)NCCNC(=O)c1cc(-c2ccccc2)nc2ccccc12` [Compound 6ao, N-(2-carbamimidamidoethyl)-2-phenylquinoline-4-carboxamide], in data set [1], the “SI = selectivity index (CC50/EC50)” value was “SI50 >60.6” and the concentration for a half-maximal effect (EC50) turned out to be 3.3 µM. This compound came in with a CC50 at 3 days in data set [2] of more than 200 µM.
For `NCCNC(=O)c1cc(-c2ccccc2)nc2ccccc12` [Compound 6an, N-(2-aminoethyl)-2-phenylquinoline-4-carboxamide] the same measures were “SI50 = 37.4”, 1.2 µM and 44.9 µM.
As to `O=C(NC1CNC1)c1cc(-c2ccccc2)nc2ccccc12` [Compound 6aj, N-(azetidin-3-yl)-2-phenylquinoline-4-carboxamide], in data set [1], the EC50 came out at 4.2 µM. Besides, half-maximal cytotoxicity in data set [2] (CC50 at 3 days) was put at 36.6 µM.
In the case of `O=C(NCC1CCCNC1)c1cc(-c2ccccc2)nc2ccccc12` (stereo not drawn) [Compound 6am], in data set [1], the “SI = selectivity index (CC50/EC50)” value was “SI50 = 4.2” and the EC50 was 7.1 µM. In data set [2], the cytotoxic concentration (CC50) at 3 days was 30.1 µM.
For `O=C(NCC1CNC1)c1cc(-c2cccs2)nc2ccccc12` [Compound 6bn, N-[(azetidin-3-yl)methyl]-2-(thiophen-2-yl)quinoline-4-carboxamide], in that order: “SI50 = 23.6”, 1.2 µM and 28.3 µM.
`N=C(N)NC(=O)c1cc(-c2ccccc2)nc2ccccc12` [Compound 10e, N-carbamimidoyl-2-phenylquinoline-4-carboxamide]: the “SI = selectivity index (CC50/EC50)” value in data set [1] is more than 7.2. This compound also showed a cytotoxic concentration (CC50) with RD cells of more than 250 µM.
Regarding `CN(C)CCNC(=O)c1cc(-c2c(F)cccc2F)nc2ccccc12` [Compound 6bb, 2-(2,6-difluorophenyl)-N-[2-(dimethylamino)ethyl]quinoline-4-carboxamide], in data set [1], the “SI = selectivity index (CC50/EC50)” value was “SI50 = 7.7” and the EC50 is 12.1 µM. Moreover, the CC50 at 3 days in data set [2] amounted to 93 µM.
In the case of `CN(C)CCNC(=O)c1cc(-c2cc(F)c(F)c(F)c2)nc2ccccc12` [Compound 6bd, N-[2-(dimethylamino)ethyl]-2-(3,4,5-trifluorophenyl)quinoline-4-carboxamide], the 50% effective concentration (EC50) in data set [1] was more than 300 µM. Moreover, in data set [2], half-maximal cytotoxicity (CC50 at 3 days) was put at 38 µM.
As to `CN1CC(NC(=O)c2cc(-c3cccs3)nc3ccccc23)C1` [Compound 6bh, N-(1-methylazetidin-3-yl)-2-(thiophen-2-yl)quinoline-4-carboxamide], in data set [1], the “SI = selectivity index (CC50/EC50)” value is recorded as “SI50 = 42.6” and the EC50 turned out to be 1 µM. In data set [2], this compound displayed a CC50 at 3 days of 42.6 µM.
On to `CC(CN)NC(=O)c1cc(-c2ccccc2)nc2ccccc12` (stereo not drawn) [Compound 6ap, N-(1-aminopropan-2-yl)-2-phenylquinoline-4-carboxamide], for which, in data set [1], the “SI = selectivity index (CC50/EC50)” value is “SI50 = 74.3” and the concentration giving a half-maximal response (EC50) turned out to be 1.2 µM. The compound also had a cytotoxic concentration (CC50) at 3 days in data set [2] of 89.1 µM.
`O=C(NCCC1CCCN1)c1cc(-c2ccccc2)nc2ccccc12` (stereo not drawn) [Compound 6ai, 2-phenyl-N-[2-(pyrrolidin-2-yl)ethyl]quinoline-4-carboxamide]: in data set [1], the EC50 was determined as 6 µM. Also, the CC50 at 3 days in data set [2] came to 19.1 µM.
For `CN1CC(NC(=O)c2cc(-c3ccccc3)nc3ccccc23)C1` [Compound 6ak, N-(1-methylazetidin-3-yl)-2-phenylquinoline-4-carboxamide] the same measures were 2.9 µM and 46.8 µM.
With `CC(CN)NC(=O)c1cc(-c2cccs2)nc2ccccc12` (stereo not drawn) [Compound 6bm, N-(1-aminopropan-2-yl)-2-(thiophen-2-yl)quinoline-4-carboxamide], in data set [1], the “SI = selectivity index (CC50/EC50)” value is on record as “SI50 = 47.6” and the EC50 turned out to be 0.5 µM. In addition, the 50% cytotoxic concentration (CC50) at 3 days in data set [2] came out at 23.8 µM.
In the case of `CC(C)Oc1cc(C(=O)NCCN2CCOCC2)c2ccccc2n1` [Compound 8d, N-[2-(morpholin-4-yl)ethyl]-2-(propan-2-yloxy)quinoline-4-carboxamide], the “SI = selectivity index (CC50/EC50)” value in data set [1] is given as more than 14.3. The CC50 with RD cells is more than 250 µM.
Take `[2H]c1c([2H])c([2H])c(-c2cc(C(=O)NCCNC)c3ccccc3n2)c([2H])c1[2H]` [Compound 6as, N-[2-(methylamino)ethyl]-2 [(2,3,4,5,6-^2H5)phenyl]quinoline-4-carboxamide]: in data set [1], the “SI = selectivity index (CC50/EC50)” value was “SI50 = 91.6” and the EC50 was found to be 1.1 µM. Also, in data set [2], it took 101 µM to reach half-maximal cytotoxicity (CC50 at 3 days).
For `O=C(NC1CNC1)c1cc(-c2ccc(F)cc2)nc2ccccc12` [Compound 6ay, N-(azetidin-3-yl)-2-(4-fluorophenyl)quinoline-4-carboxamide] the same measures were “SI50 = 42.5”, 1.1 µM and 46.7 µM.
Regarding `O=C(NCC1CNC1)c1cc(-c2ccccc2)nc2ccccc12` [Compound 6ag, N-[(azetidin-3-yl)methyl]-2-phenylquinoline-4-carboxamide], the EC50 in data set [1] came out at 5.8 µM. The half-maximal cytotoxic concentration (CC50) at 3 days in data set [2] is 43.2 µM.
For `CN(C)CCOC(=O)c1cc(-c2ccccc2)nc2ccccc12` [Compound 6ab, 2-(dimethylamino)ethyl 2-phenylquinoline-4-carboxylate], in that order: more than 50 µM and 78.9 µM.
Regarding `NCCCNC(=O)c1cc(-c2ccccc2)nc2ccccc12` [Compound 6ad, N-(3-aminopropyl)-2-phenylquinoline-4-carboxamide], in data set [1], the “SI = selectivity index (CC50/EC50)” value is listed as “SI50 = 23.4” and the EC50 was determined as 7.2 µM. In data set [2], this compound yielded a CC50 at 3 days of 168 µM.
For `CN(C)c1ccc(NC(=O)c2cc(-c3ccccc3)nc3ccccc23)cc1` [Compound 10f, N-[4-(dimethylamino)phenyl]-2-phenylquinoline-4-carboxamide], the “SI = selectivity index (CC50/EC50)” value in data set [1] is more than 3.5. In addition, in the data set with RD cells, the 50% cytotoxic concentration (CC50) is more than 350 µM.
